PMC5218480 (PLoS ONE, 2017)

Test system: MV-4-11 cells
Test: Gene expression microarray analysis (Affymetrix PrimeView) and GSEA
Assay type: cell-based, human
Design: RFU PODN (11730768_x_at) / Fold change /veh PODN (11730768_x_at) / RFU LINC00158 (11744669_a_at) / Fold change /veh LINC00158 (11744669_a_at) / RFU DUSP10 (11751237_a_at) / Fold change /veh DUSP10 (11751237_a_at) / RFU ID3 (11757404_x_at) / Fold change /veh ID3 (11757404_x_at) / RFU PLEKHG5 (11737974_s_at) / Fold change /veh PLEKHG5 (11737974_s_at) / RFU LRRC4B (11730491_at) / Fold change /veh LRRC4B (11730491_at) / RFU GIMAP4 (11747438_a_at) / Fold change /veh GIMAP4 (11747438_a_at) / RFU KRT8 (11758183_x_at) / Fold change /veh KRT8 (11758183_x_at) / RFU CNN1 (11734310_a_at) / Fold change /veh CNN1 (11734310_a_at) / RFU VPS37D (11726825_at) / Fold change /veh VPS37D (11726825_at) / RFU C10orf10 (11716522_x_at) / Fold change /veh C10orf10 (11716522_x_at) / RFU KIR2DL2 /// KIR2DL4 /// KIR2DL5A /// KIR2DL5B /// KIR2DS1 /// KIR2DS2 /// KIR2DS3 /// KIR2DS4 /// KIR3DL3 /// KIR3DL3 /// KIR3DS1 (11738374_at) / Fold change /veh KIR2DL2 /// KIR2DL4 /// KIR2DL5A /// KIR2DL5B /// KIR2DS1 /// KIR2DS2 /// KIR2DS3 /// KIR2DS4 /// KIR3DL3 /// KIR3DL3 /// KIR3DS1 (11738374_at) / RFU C1QL1 (11718748_at) / Fold change /veh C1QL1 (11718748_at) / RFU TMPRSS4 (11747572_a_at) / Fold change /veh TMPRSS4 (11747572_a_at) / RFU HAMP (11756126_x_at) / Fold change /veh HAMP (11756126_x_at) / RFU RNFT2 (11725882_a_at) / Fold change /veh RNFT2 (11725882_a_at) / RFU NR4A2 (11747474_a_at) / Fold change /veh NR4A2 (11747474_a_at) / RFU ABCC12 (11746883_a_at) / Fold change /veh ABCC12 (11746883_a_at) / RFU TMEM136 (11760407_x_at) / Fold change /veh TMEM136 (11760407_x_at) / RFU CLDN22 /// WWC2 (11732394_at) / Fold change /veh CLDN22 /// WWC2 (11732394_at) / RFU HLA-DPB1 (11760878_x_at) / Fold change /veh HLA-DPB1 (11760878_x_at) / RFU SPINT1 (11716480_a_at) / Fold change /veh SPINT1 (11716480_a_at) / RFU GAP43 (11754022_s_at) / Fold change /veh GAP43 (11754022_s_at) / RFU A4GNT (11735810_at) / Fold change /veh A4GNT (11735810_at) / RFU PRB3 (11715151_x_at) / Fold change /veh PRB3 (11715151_x_at) / RFU TUBB4B (11761932_at) / Fold change /veh TUBB4B (11761932_at) / RFU CAPN14 (11732068_a_at) / Fold change /veh CAPN14 (11732068_a_at) / RFU TMCC2 (11721928_a_at) / Fold change /veh TMCC2 (11721928_a_at) / RFU IRGQ (11745062_a_at) / Fold change /veh IRGQ (11745062_a_at) / RFU FAM174B (11720279_a_at) / Fold change /veh FAM174B (11720279_a_at) / RFU TMPRSS4 (11748680_a_at) / Fold change /veh TMPRSS4 (11748680_a_at) / RFU FAM212B (11763350_a_at) / Fold change /veh FAM212B (11763350_a_at) / RFU PLEKHG5 (11743358_a_at) / Fold change /veh PLEKHG5 (11743358_a_at) / RFU ZSCAN30 (11745921_a_at) / Fold change /veh ZSCAN30 (11745921_a_at) / RFU CMKLR1 (11741424_a_at) / Fold change /veh CMKLR1 (11741424_a_at) / RFU LOC101060620 /// MAPK8IP1 (11723275_at) / Fold change /veh LOC101060620 /// MAPK8IP1 (11723275_at) / RFU SPTSSB (11747773_x_at) / Fold change /veh SPTSSB (11747773_x_at) / RFU PRSS12 (11739890_at) / Fold change /veh PRSS12 (11739890_at) / RFU BIN1 (11741810_x_at) / Fold change /veh BIN1 (11741810_x_at) / RFU WNT11 (11732464_a_at) / Fold change /veh WNT11 (11732464_a_at) / RFU C10orf10 (11716521_a_at) / Fold change /veh C10orf10 (11716521_a_at) / RFU C5orf56 (11738089_at) / Fold change /veh C5orf56 (11738089_at) / RFU CYB561 (11721691_x_at) / Fold change /veh CYB561 (11721691_x_at) / RFU ANKRD19P (11752326_a_at) / Fold change /veh ANKRD19P (11752326_a_at) / RFU OR2T12 /// OR2T33 /// OR2T8 (11738714_s_at) / Fold change /veh OR2T12 /// OR2T33 /// OR2T8 (11738714_s_at) / RFU VCAN (11748164_a_at) / Fold change /veh VCAN (11748164_a_at) / RFU JSRP1 (11732532_at) / Fold change /veh JSRP1 (11732532_at) / RFU KRTAP10-11 (11738290_x_at) / Fold change /veh KRTAP10-11 (11738290_x_at) / RFU MYO3A (11730013_a_at) / Fold change /veh MYO3A (11730013_a_at) / RFU EBF3 (11725865_a_at) / Fold change /veh EBF3 (11725865_a_at) / RFU CAMK2N1 (11719241_x_at) / Fold change /veh CAMK2N1 (11719241_x_at) / RFU C5orf56 (11738088_a_at) / Fold change /veh C5orf56 (11738088_a_at) / RFU OLFML3 (11715873_a_at) / Fold change /veh OLFML3 (11715873_a_at) / RFU LOC100653217 /// NTM (11731650_a_at) / Fold change /veh LOC100653217 /// NTM (11731650_a_at) / RFU MAPK11 (11762145_a_at) / Fold change /veh MAPK11 (11762145_a_at) / RFU FIZ1 (11724087_x_at) / Fold change /veh FIZ1 (11724087_x_at) / RFU OASL (11726364_x_at) / Fold change /veh OASL (11726364_x_at) / RFU SOX15 (11748057_x_at) / Fold change /veh SOX15 (11748057_x_at) / RFU CD79A (11719716_a_at) / Fold change /veh CD79A (11719716_a_at) / RFU HIST1H1D (11736915_at) / Fold change /veh HIST1H1D (11736915_at) / RFU CASKIN2 (11723855_a_at) / Fold change /veh CASKIN2 (11723855_a_at) / RFU LOC730098 (11760151_x_at) / Fold change /veh LOC730098 (11760151_x_at) / RFU OR4N2 (11742367_at) / Fold change /veh OR4N2 (11742367_at) / RFU PRRT2 (11749266_a_at) / Fold change /veh PRRT2 (11749266_a_at) / RFU SNX32 (11753110_a_at) / Fold change /veh SNX32 (11753110_a_at) / RFU CDHR5 (11726645_a_at) / Fold change /veh CDHR5 (11726645_a_at) / RFU RCAN1 (11760418_a_at) / Fold change /veh RCAN1 (11760418_a_at) / RFU FAM167A (11723789_a_at) / Fold change /veh FAM167A (11723789_a_at) / RFU FAM26E (11764081_at) / Fold change /veh FAM26E (11764081_at) / RFU ISYNA1 (11749810_s_at) / Fold change /veh ISYNA1 (11749810_s_at) / RFU ACY1 (11761880_at) / Fold change /veh ACY1 (11761880_at) / RFU 11764098_at / Fold change /veh 11764098_at / RFU SAMD14 (11745864_x_at) / Fold change /veh SAMD14 (11745864_x_at) / RFU NPB (11741838_a_at) / Fold change /veh NPB (11741838_a_at) / RFU TMPRSS6 (11731388_a_at) / Fold change /veh TMPRSS6 (11731388_a_at) / RFU KRTAP10-2 (11738614_at) / Fold change /veh KRTAP10-2 (11738614_at) / RFU ARHGAP8 /// PRR5-ARHGAP8 (11727945_x_at) / Fold change /veh ARHGAP8 /// PRR5-ARHGAP8 (11727945_x_at) / RFU KRTAP5-7 /// NADSYN1 (11734609_at) / Fold change /veh KRTAP5-7 /// NADSYN1 (11734609_at) / RFU RASL12 (11751679_a_at) / Fold change /veh RASL12 (11751679_a_at) / RFU CDKN2B (11736163_a_at) / Fold change /veh CDKN2B (11736163_a_at) / RFU PRF1 (11729649_at) / Fold change /veh PRF1 (11729649_at) / RFU, ZNF638 /// ZNF638-IT1 / Fold change vs veh, ZNF638 /// ZNF638-IT1 / RFU, PANK3 / Fold change vs veh, PANK3 / RFU, SH3YL1 / Fold change vs veh, SH3YL1 / RFU, ZEB2 / Fold change vs veh, ZEB2 / RFU, NRIP1 / Fold change vs veh, NRIP1 / RFU, PTTG1IP / Fold change vs veh, PTTG1IP / RFU, CAPN2 / Fold change vs veh, CAPN2 / RFU, MED14 / Fold change vs veh, MED14 / RFU, SNORA58 / Fold change vs veh, SNORA58 / RFU, C1orf63 / Fold change vs veh, C1orf63 / RFU, LRRFIP1 / Fold change vs veh, LRRFIP1 / RFU, NDUFAF7 / Fold change vs veh, NDUFAF7 / RFU, SLC12A2 / Fold change vs veh, SLC12A2 / RFU, IBTK / Fold change vs veh, IBTK / RFU, ESF1 / Fold change vs veh, ESF1 / Fold change vs veh, TMEM50B / RFU, TAOK1 / Fold change vs veh, TAOK1 / RFU, ACBD3 / Fold change vs veh, ACBD3 / RFU, TMA16 / Fold change vs veh, TMA16 / RFU, RWDD3 / Fold change vs veh, RWDD3 / RFU, BCAT1 / Fold change vs veh, BCAT1 / RFU, EDEM3 / Fold change vs veh, EDEM3 / RFU, TMEM33 / Fold change vs veh, TMEM33 / RFU, WDR75 / Fold change vs veh, WDR75 / RFU, AHCTF1 / Fold change vs veh, AHCTF1 / RFU, TFRC / Fold change vs veh, TFRC / RFU, ZDHHC17 / Fold change vs veh, ZDHHC17 / RFU, NOM1 / Fold change vs veh, NOM1 / RFU, ARL8B / Fold change vs veh, ARL8B / RFU, ZBTB11 / Fold change vs veh, ZBTB11 / RFU, TAMM41 / Fold change vs veh, TAMM41 / RFU, KIAA1704 /// LOC100996395 / Fold change vs veh, KIAA1704 /// LOC100996395 / RFU, ING1 / Fold change vs veh, ING1 / RFU, TRMT61B / Fold change vs veh, TRMT61B / RFU, FUBP3 / Fold change vs veh, FUBP3 / RFU, TP53 / Fold change vs veh, TP53 / RFU, TNKS2 / Fold change vs veh, TNKS2 / RFU, ZFP14 / Fold change vs veh, ZFP14 / RFU, ACTR2 / Fold change vs veh, ACTR2 / RFU, PPP3R1 / Fold change vs veh, PPP3R1 / RFU, PIK3R1 / Fold change vs veh, PIK3R1 / RFU, HNRNPA1 / Fold change vs veh, HNRNPA1 / RFU, RNF170 / Fold change vs veh, RNF170 / RFU, ZNF28 / Fold change vs veh, ZNF28 / RFU, RNGTT / Fold change vs veh, RNGTT / RFU, OGT / Fold change vs veh, OGT / RFU, BRD1 / Fold change vs veh, BRD1 / RFU, MARS / Fold change vs veh, MARS / RFU, ZNF655 / Fold change vs veh, ZNF655 / RFU, FAHD1 / Fold change vs veh, FAHD1 / RFU, BDP1 / Fold change vs veh, BDP1 / RFU, LRRCC1 / Fold change vs veh, LRRCC1 / RFU, ARID1A / Fold change vs veh, ARID1A / RFU, ZNF146 / Fold change vs veh, ZNF146 / RFU, ZNF330 / Fold change vs veh, ZNF330 / RFU, GPN3 / Fold change vs veh, GPN3 / RFU, C9orf123 / Fold change vs veh, C9orf123 / RFU, N4BP2L2 / Fold change vs veh, N4BP2L2 / RFU, ARFIP1 / Fold change vs veh, ARFIP1 / RFU, FAM179B / Fold change vs veh, FAM179B / RFU, BCL10 / Fold change vs veh, BCL10 / RFU, UHRF1BP1L / Fold change vs veh, UHRF1BP1L / RFU, BET1 / Fold change vs veh, BET1 / RFU, CNOT2 / Fold change vs veh, CNOT2 / RFU, ZNF268 / Fold change vs veh, ZNF268 / Fold change vs veh, ZNF507 / RFU, DGCR2 / Fold change vs veh, DGCR2 / RFU, WDSUB1 / Fold change vs veh, WDSUB1 / Fold change vs veh, HSP90B1 /// MIR3652 / RFU, ADSS / Fold change vs veh, ADSS / RFU, GK / Fold change vs veh, GK / RFU, ZNF148 / Fold change vs veh, ZNF148 / RFU, TAF9 / Fold change vs veh, TAF9 / RFU, SLC1A5 / Fold change vs veh, SLC1A5 / RFU, SLMO2 / Fold change vs veh, SLMO2 / RFU, ABCC4 / Fold change vs veh, ABCC4 / RFU, LOC101060439 /// RAP1B / Fold change vs veh, LOC101060439 /// RAP1B / RFU, RFX7 / Fold change vs veh, RFX7 / RFU, GTPBP10 / Fold change vs veh, GTPBP10 / RFU, CNEP1R1 / Fold change vs veh, CNEP1R1 / RFU, BIVM-ERCC5 /// ERCC5 / Fold change vs veh, BIVM-ERCC5 /// ERCC5 / RFU, ILF3 / Fold change vs veh, ILF3 / RFU 11762660_at / Fold change /veh 11762660_at / RFU VCAN (11757783_s_at) / Fold change /veh VCAN (11757783_s_at) / RFU DDX43 (11728927_at) / Fold change /veh DDX43 (11728927_at) / RFU KRT8 (11758188_x_at) / Fold change /veh KRT8 (11758188_x_at) / RFU NKD1 (11759106_at) / Fold change /veh NKD1 (11759106_at) / RFU SRD5A1 (11742802_a_at) / Fold change /veh SRD5A1 (11742802_a_at) / RFU TPSAB1 /// TPSB2 (11721975_s_at) / Fold change /veh TPSAB1 /// TPSB2 (11721975_s_at) / RFU GSTM3 (11746129_a_at) / Fold change /veh GSTM3 (11746129_a_at) / RFU IL23R (11737362_x_at) / Fold change /veh IL23R (11737362_x_at) / RFU TMEM51 (11727254_a_at) / Fold change /veh TMEM51 (11727254_a_at) / RFU PIWIL2 (11732686_x_at) / Fold change /veh PIWIL2 (11732686_x_at) / RFU ORM1 (11744905_x_at) / Fold change /veh ORM1 (11744905_x_at) / RFU CCDC152 (11743942_at) / Fold change /veh CCDC152 (11743942_at) / RFU ECM1 (11717891_a_at) / Fold change /veh ECM1 (11717891_a_at) / RFU IL23R (11748794_a_at) / Fold change /veh IL23R (11748794_a_at) / RFU TNFAIP8L3 (11732012_x_at) / Fold change /veh TNFAIP8L3 (11732012_x_at) / RFU MBOAT4 (11741988_at) / Fold change /veh MBOAT4 (11741988_at) / RFU 11764193_at / Fold change /veh 11764193_at / RFU TMEM53 (11763286_at) / Fold change /veh TMEM53 (11763286_at) / RFU MAGEB2 (11727129_at) / Fold change /veh MAGEB2 (11727129_at) / RFU TMEM200A (11744735_a_at) / Fold change /veh TMEM200A (11744735_a_at) / RFU CCDC152 (11751479_a_at) / Fold change /veh CCDC152 (11751479_a_at) / RFU FAM211A (11726209_a_at) / Fold change /veh FAM211A (11726209_a_at) / RFU RGS16 (11746705_a_at) / Fold change /veh RGS16 (11746705_a_at) / RFU VCAN (11755009_s_at) / Fold change /veh VCAN (11755009_s_at) / RFU RHOB (11743442_s_at) / Fold change /veh RHOB (11743442_s_at) / RFU RGS16 (11720943_a_at) / Fold change /veh RGS16 (11720943_a_at) / RFU RGS16 (11720944_at) / Fold change /veh RGS16 (11720944_at) / RFU, VPS4B / Fold change vs veh, VPS4B / RFU, CREB1 / Fold change vs veh, CREB1 / RFU, DNAJC13 / Fold change vs veh, DNAJC13 / RFU, GNAQ / Fold change vs veh, GNAQ / RFU, CDK5R1 / Fold change vs veh, CDK5R1 / RFU, ZRANB3 / Fold change vs veh, ZRANB3 / RFU, CUL4A / Fold change vs veh, CUL4A / RFU, CCNY / Fold change vs veh, CCNY / RFU, UFL1 / Fold change vs veh, UFL1 / RFU, COG3 / Fold change vs veh, COG3 / RFU, DIAPH2 / Fold change vs veh, DIAPH2 / RFU, SKA2 / Fold change vs veh, SKA2 / RFU, AFF3 / Fold change vs veh, AFF3 / RFU, LMF1 / Fold change vs veh, LMF1 / RFU, IPO11 / Fold change vs veh, IPO11 / RFU, DFFB / Fold change vs veh, DFFB / RFU, FOXP1 / Fold change vs veh, FOXP1 / RFU, CARD8 / Fold change vs veh, CARD8 / RFU, STRN3 / Fold change vs veh, STRN3 / RFU, ADK / Fold change vs veh, ADK / RFU, RASSF2 / Fold change vs veh, RASSF2 / RFU, WIPF1 / Fold change vs veh, WIPF1 / RFU, LARP1B / Fold change vs veh, LARP1B / RFU, RASA1 / Fold change vs veh, RASA1 / RFU, RB1 / Fold change vs veh, RB1 / RFU, PPFIA1 / Fold change vs veh, PPFIA1 / RFU, MAT2A / Fold change vs veh, MAT2A / RFU, CCT5 / Fold change vs veh, CCT5 / RFU, WDR92 / Fold change vs veh, WDR92 / RFU, CUX1 / Fold change vs veh, CUX1 / RFU, TTC7A / Fold change vs veh, TTC7A / RFU, TMEM135 / Fold change vs veh, TMEM135 / RFU, DEPTOR / Fold change vs veh, DEPTOR / RFU, CPM / Fold change vs veh, CPM / RFU, DNAJB6 / Fold change vs veh, DNAJB6 / RFU, CACNA2D3 / Fold change vs veh, CACNA2D3 / RFU, DTX4 / Fold change vs veh, DTX4 / RFU, TFCP2 / Fold change vs veh, TFCP2 / RFU, GMCL1 /// GMCL1P1 / Fold change vs veh, GMCL1 /// GMCL1P1 / RFU, AEBP2 / Fold change vs veh, AEBP2 / RFU, SNHG1 /// SNORD22 /// SNORD25 /// SNORD26 /// SNORD27 /// SNORD28 /// SNORD29 /// SNORD31 / Fold change vs veh, SNHG1 /// SNORD22 /// SNORD25 /// SNORD26 /// SNORD27 /// SNORD28 /// SNORD29 /// SNORD31 / Fold change (Aza/veh), C12orf56 (ProbeSet 11735607_a_at) / Fold change (ACY-1035/veh), C12orf56 (ProbeSet 11735607_a_at) / Fold change (Aza/veh), FGFR1OP (ProbeSet 11751329_s_at) / Fold change (ACY-1035/veh), FGFR1OP (ProbeSet 11751329_s_at) / Fold change (Aza/veh), VPS36 (ProbeSet 11739960_a_at) / Fold change (ACY-1035/veh), VPS36 (ProbeSet 11739960_a_at) / RFU SYPL1 (11715823_x_at) / Fold change /veh SYPL1 (11715823_x_at) / RFU IGFBP7 (11715501_s_at) / Fold change /veh IGFBP7 (11715501_s_at) / RFU REEP3 (11722064_at) / Fold change /veh REEP3 (11722064_at) / RFU IGLL1 (11728026_x_at) / Fold change /veh IGLL1 (11728026_x_at): dose or concentration left out as unconfirmed
Details: ProbeSet 11717914_a_at; LIST B

## Nc1ncn([C@@H]2O[C@H](CO)[C@@H](O)[C@H]2O)c(=O)n1 [azacitidine]
  RFU, BIVM-ERCC5 /// ERCC5: 162.65 RFU
